The record followed here is DBAASP.

Experiment in all cases: ≥ marks a high value that may be exact or a test limit, other limits are often not marked, values filed in µg/mL are converted to µM
For assay [1], the system named is Staphylococcus epidermidis ATCC 12228.
In assay [2] the test system is Staphylococcus aureus ATCC 29213.
Assay [3] concerns Pseudomonas aeruginosa ATCC 27853.
For assay [4], the system named is Escherichia coli ATCC 25922.
The test system of assay [5] is Salmonella enterica subsp. enterica serovar Typhimurium C77-31.
Assay [6] relates to Bacillus subtilis CMCC 63501.
The test system of assay [7] is Enterococcus faecalis ATCC 29212.
For assay [8], the system named is Salmonella enterica subsp. enterica serovar Pullorum C79-13.
Assay [9] relates to Candida albicans ATCC 10231.
Assay [10] deals with Aspergillus niger ATCC 9142.
For assay [11], the system named is Candida glabrata ATCC 90030.
For assay [12], the system named is Aspergillus fumigatus ATCC 1022.
For assay [13], the system named is Candida krusei ATCC 28870.
In assay [14] the test system is Cryptococcus neoformans ATCC 2517.
The test system of assay [15] is Trichophyton mentagrophytes ATCC 32510.
Assay [16] deals with Staphylococcus aureus ATCC 25923.
Assay [17] concerns Saccharomyces cerevisiae PTCC 5052.
In assay [18] the test system is Aspergillus flavus ATCC 24109.
Assay [19] relates to Bacillus subtilis ATCC 6051.
For assay [20], the system named is Microsporum canis PTCC 5069.
Assay [21] deals with Salmonella typhimurium KCTC 1926.
The subject of assay [22] is Bacillus subtilis KCTC 1998.
Assay [23] has as its system Proteus vulgaris KCTC 2433.
The subject of assay [24] is Aspergillus flavus KCTC 6905.
Assay [25] has as its system Pseudomonas aeruginosa ATCC 15692.
Assay [26] concerns Aspergillus parasiticus KCTC 6598.
The test system of assay [27] is Listeria monocytogenes KCTC 3710.
Assay [28] relates to Aspergillus fumigatus KCTC 6145.
The subject of assay [29] is Aspergillus awamori KCTC 6915.
Assay [30] has as its system Trichosporon beigelii KCTC 7707.
In assay [31] the test system is Candida albicans KCTC 7270.
Assay [32] relates to Klebsiella pneumoniae ATCC 700603.
Assay [33] relates to Staphylococcus aureus ATCC 29313.
Assay [34] relates to Salmonella enterica subsp. enterica serovar Typhimurium ATCC 14028.
Assay [35] relates to Pseudomonas aeruginosa PA006.
For assay [36], the system named is Pseudomonas aeruginosa Pa4-SA2.
Assay [37] relates to Pseudomonas aeruginosa Pa1-SA2.
Assay [38] concerns Pseudomonas aeruginosa PAO1.

SMILES strings stand for the structures. Values after ≈ are worked out from the molar mass of the structure shown. A value given as a limit tells only on which side of the number the result lay.

What is called MIC is the smallest concentration in the dilution series that meets the test's criterion for growth inhibition. High values mean a need for much substance, low ones inhibition by little substance. As to `NC(=O)[C@H](Cc1ccccc1)NC(=O)[C@H](CCCN=C(N)N)NC(=O)[C@H](CS)NC(=O)[C@H](Cc1ccccc1)NC(=O)[C@H](CCCN=C(N)N)NC(=O)[C@H](CCCN=C(N)N)NC(=O)[C@H](CCCN=C(N)N)NC(=O)[C@H](CS)NC(=O)[C@H](CCCN=C(N)N)NC(=O)[C@@H](N)Cc1ccccc1` [FRCRRRFCRF], the MIC in [1] was 16 µM (≈ 23.1 µg/mL); in [2], 32 µM (≈ 46.3 µg/mL); in [3], greater than 128 µM; in assay [4] it was 4 µM (≈ 5.78 µg/mL); in assay [5], no less than 32 µM; in assay [6], 4 µM (≈ 5.78 µg/mL). Further, the MIC in assay [7] is 32 µM (≈ 46.3 µg/mL); in assay [8] it was 16 µM (≈ 23.1 µg/mL).

Turning to `CC[C@H](C)[C@H](NC(=O)[C@H](CCCCN)NC(=O)[C@H](CCCCN)NC(=O)[C@@H](NC(=O)[C@@H](NC(=O)[C@H](CC(=O)O)NC(=O)[C@H](Cc1ccccc1)NC(=O)[C@H](CC(C)C)NC(=O)CN)[C@@H](C)CC)[C@@H](C)CC)C(=O)N[C@@H](C)C(=O)N[C@@H](CCC(=O)O)C(=O)N[C@@H](CO)C(=O)N[C@@H](Cc1ccccc1)C(=O)O` [GLFDIIKKIAESF], the MIC in [9] is 84.4 µM (≈ 125 µg/mL); in assay [10], no less than 675 µM; in [11], no less than 675 µM; in [12], no less than 84.4 µM; in [13] it was no less than 338 µM; in [14], no less than 675 µM. Besides, the MIC is no less than 675 µM in [15]; greater than 675 µM in assay [16]; no less than 84.4 µM in [17]; greater than 675 µM in [3]; 84.4 µM (≈ 125 µg/mL) in [4]; no less than 675 µM in assay [18]. Also, the MIC was no less than 172 µM in [19], 84.4 µM (≈ 125 µg/mL) in assay [7] and no less than 675 µM in [20].

Turning to `CC[C@H](C)[C@H](NC(=O)[C@H](CCCCN)NC(=O)[C@H](CCCCN)NC(=O)[C@H](C)NC(=O)[C@H](CC(C)C)NC(=O)[C@H](CCCCN)NC(=O)[C@H](CCCCN)NC(=O)[C@H](CC(C)C)NC(=O)[C@H](CCCN=C(N)N)NC(=O)[C@H](CCCCN)NC(=O)[C@H](C)N)C(=O)N[C@@H](Cc1c[nH]c2ccccc12)C(=O)N[C@@H](CCCCN)C(=O)N[C@@H](Cc1c[nH]c2ccccc12)C(=O)N[C@@H](CC(C)C)C(N)=O` [AKRLKKLAKKIWKWL], the MIC in assay [1] was 8 µM (≈ 15.3 µg/mL); in assay [21], 8 µM (≈ 15.3 µg/mL); in assay [22], 8 µM (≈ 15.3 µg/mL); in assay [23] it was 11.3 µM (≈ 21.6 µg/mL); in [24] it was no less than 64 µM; in assay [25], no less than 32 µM. Moreover, the MIC in assay [26] was 16 µM (≈ 30.6 µg/mL); in [16], 16 µM (≈ 30.6 µg/mL); in assay [27], 16 µM (≈ 30.6 µg/mL); in assay [28], 16 µM (≈ 30.6 µg/mL); in [4], 32 µM (≈ 61.1 µg/mL); in assay [29], no less than 64 µM. In addition, the MIC in assay [30] was no less than 128 µM; in [31], 16 µM (≈ 30.6 µg/mL).

With `CC[C@H](C)[C@H](NC(=O)[C@H](CCCCN)NC(=O)CNC(=O)[C@H](CCSC)NC(=O)[C@H](C)NC(=O)[C@H](Cc1cnc[nH]1)NC(=O)[C@H](C)NC(=O)[C@@H](NC(=O)[C@H](CC(C)C)NC(=O)[C@H](CCC(N)=O)NC(=O)[C@H](CCCCN)NC(=O)CNC(=O)[C@H](C)NC(=O)CNC(=O)[C@H](CCCCN)NC(=O)[C@@H](NC(=O)[C@@H](NC(=O)[C@H](CC(=O)O)NC(=O)[C@H](Cc1ccccc1)NC(=O)[C@@H](NC(=O)CN)C(C)C)[C@@H](C)CC)[C@@H](C)CC)[C@@H](C)CC)C(=O)N[C@@H](C)C(=O)N[C@@H](CCC(=O)O)C(=O)N[C@@H](CCCCN)C(=O)N[C@H](C(N)=O)C(C)C` [GVFDIIKGAGKQLIAHAMGKIAEKV], the MIC in assay [32] was 308 µM (≈ 800 µg/mL); in [33], no less than 308 µM; in assay [3], greater than 197 µM; in assay [34], 308 µM (≈ 800 µg/mL); in assay [35], 6.17 µM (≈ 16 µg/mL); in assay [4], 77.1 µM (≈ 200 µg/mL). In addition, the MIC was no less than 98.6 µM in [36], no less than 197 µM in assay [37] and 197 µM (≈ 512 µg/mL) in [38].
